Measured values taken from patent publication US11339447B2, “System and method for determining Kareniticin sensitivity on cancer” (CROWN BIOSCIENCE, INC. (TAICANG), priority 2017, dated 2022).

What was measured:
PDX CR1560 = test: karenitecin treatment of PDX model; assay type: in vivo; design: key to Response: responder: responded to karenitecin treatment (AUC<0.5 and TGI>0.8); non_responder: did not respond to karenitecin treatment (AUC>0.5 and TGI<0.6); settings: karenitecin treatment for two weeks
Procedure: (§1) A cohort of 48 PDX models in 8 cancers were used in this study. Those models were subject to karenitecin treatment for two weeks. Both tumor growth inhibition (TGI) and median AUC (area under curve) ratio, a newly developed metric to evaluate drug efficacy, were calculated (Table 1). Those models can be divided into two categories according to TGI and median AUC ratio.

PDX CR3085 = test: karenitecin treatment of PDX model; assay type: in vivo; design: key to Response: responder: responded to karenitecin treatment (AUC<0.5 and TGI>0.8); non_responder: did not respond to karenitecin treatment (AUC>0.5 and TGI<0.6); settings: karenitecin treatment for two weeks
Procedure: as §1

PDX CR6249 = test: karenitecin treatment of PDX model; assay type: in vivo; design: key to Response: responder: responded to karenitecin treatment (AUC<0.5 and TGI>0.8); non_responder: did not respond to karenitecin treatment (AUC>0.5 and TGI<0.6); settings: karenitecin treatment for two weeks
Procedure: as §1

PDX ES0212 = test: karenitecin treatment of PDX model; assay type: in vivo; design: key to Response: responder: responded to karenitecin treatment (AUC<0.5 and TGI>0.8); non_responder: did not respond to karenitecin treatment (AUC>0.5 and TGI<0.6); settings: karenitecin treatment for two weeks
Procedure: as §1

PDX GA0098 = test: karenitecin treatment of PDX model; assay type: in vivo; design: key to Response: responder: responded to karenitecin treatment (AUC<0.5 and TGI>0.8); non_responder: did not respond to karenitecin treatment (AUC>0.5 and TGI<0.6); settings: karenitecin treatment for two weeks
Procedure: as §1

PDX GL1208 = test: karenitecin treatment of PDX model; assay type: in vivo; design: key to Response: responder: responded to karenitecin treatment (AUC<0.5 and TGI>0.8); non_responder: did not respond to karenitecin treatment (AUC>0.5 and TGI<0.6); settings: karenitecin treatment for two weeks
Procedure: as §1

PDX LU0330 = test: karenitecin treatment of PDX model; assay type: in vivo; design: key to Response: responder: responded to karenitecin treatment (AUC<0.5 and TGI>0.8); non_responder: did not respond to karenitecin treatment (AUC>0.5 and TGI<0.6); settings: karenitecin treatment for two weeks
Procedure: as §1

PDX LU0858 = test: karenitecin treatment of PDX model; assay type: in vivo; design: key to Response: responder: responded to karenitecin treatment (AUC<0.5 and TGI>0.8); non_responder: did not respond to karenitecin treatment (AUC>0.5 and TGI<0.6); settings: karenitecin treatment for two weeks
Procedure: as §1

PDX LU0884 = test: karenitecin treatment of PDX model; assay type: in vivo; design: key to Response: responder: responded to karenitecin treatment (AUC<0.5 and TGI>0.8); non_responder: did not respond to karenitecin treatment (AUC>0.5 and TGI<0.6); settings: karenitecin treatment for two weeks
Procedure: as §1

PDX LU2071 = test: karenitecin treatment of PDX model; assay type: in vivo; design: key to Response: responder: responded to karenitecin treatment (AUC<0.5 and TGI>0.8); non_responder: did not respond to karenitecin treatment (AUC>0.5 and TGI<0.6); settings: karenitecin treatment for two weeks
Procedure: as §1

PDX OV0243 = test: karenitecin treatment of PDX model; assay type: in vivo; design: key to Response: responder: responded to karenitecin treatment (AUC<0.5 and TGI>0.8); non_responder: did not respond to karenitecin treatment (AUC>0.5 and TGI<0.6); settings: karenitecin treatment for two weeks
Procedure: as §1

PDX PA1301 = test: karenitecin treatment of PDX model; assay type: in vivo; design: key to Response: responder: responded to karenitecin treatment (AUC<0.5 and TGI>0.8); non_responder: did not respond to karenitecin treatment (AUC>0.5 and TGI<0.6); settings: karenitecin treatment for two weeks
Procedure: as §1

PDX PA3065 = test: karenitecin treatment of PDX model; assay type: in vivo; design: key to Response: responder: responded to karenitecin treatment (AUC<0.5 and TGI>0.8); non_responder: did not respond to karenitecin treatment (AUC>0.5 and TGI<0.6); settings: karenitecin treatment for two weeks
Procedure: as §1

[1] = tested on: 48 PDX models in 8 cancers; test: karenitecin treatment of a cohort of 48 PDX models; assay type: in vivo; settings: number of the 48 PDX models in 8 cancers; treatment for two weeks
Procedure: as §1

[2] = tested on: extensively pretreated ovarian cancer; settings: previous clinical trial (Kavanagh 2008); cited from earlier work

With `CC[C@@]1(O)C(=O)OCc2c1cc1n(c2=O)Cc2c-1nc1ccccc1c2CC[Si](C)(C)C` [karenitecin] the “Median AUC ratio” value (PDX CR1560) was 0.397, the Response (PDX CR1560) was “responder” and the TGI (PDX CR1560) was 1.146. For the same compound, the “Median AUC ratio” value (PDX CR3085) was 0.019, the Response (PDX CR3085) was “responder” and the TGI (PDX CR3085) was 1.051. For the same compound, the “Median AUC ratio” value (PDX CR6249) was −0.712, the Response (PDX CR6249) was “responder” and the TGI (PDX CR6249) was 1.253. For the same compound, the “Median AUC ratio” value (PDX ES0212) was 0.061, the Response (PDX ES0212) was “responder” and the TGI (PDX ES0212) was 1.017. For the same compound, the “Median AUC ratio” value (PDX GA0098) was 0.512, the Response (PDX GA0098) was “non_responder” and the TGI (PDX GA0098) was 0.482. For the same compound, the “Median AUC ratio” value (PDX GL1208) was 0.811, the Response (PDX GL1208) was “non_responder” and the TGI (PDX GL1208) was 0.135. For the same compound, the “Median AUC ratio” value (PDX LU0330) was 1.094, the Response (PDX LU0330) was “non_responder” and the TGI (PDX LU0330) was 0.000. For the same compound, the “Median AUC ratio” value (PDX LU0858) was 0.027, the Response (PDX LU0858) was “responder” and the TGI (PDX LU0858) was 1.000. For the same compound, the “Median AUC ratio” value (PDX LU0884) was 1.497, the Response (PDX LU0884) was “non_responder” and the TGI (PDX LU0884) was −0.188. The “Median AUC ratio” value (PDX LU2071) was 0.037, the Response (PDX LU2071) was “responder” and the TGI (PDX LU2071) was 1.099. The “Median AUC ratio” value (PDX OV0243) was −1.983, the Response (PDX OV0243) was “responder” and the TGI (PDX OV0243) was 1.449. For the same compound, the “Median AUC ratio” value (PDX PA1301) was 1.038, the Response (PDX PA1301) was “non_responder” and the TGI (PDX PA1301) was 0.285. The “Median AUC ratio” value (PDX PA3065) was 0.309, the Response (PDX PA3065) was “responder” and the TGI (PDX PA3065) was 1.019. For the same compound, the “models did not respond to karenitecin treatment (AUC>0.5 and TGI<0.6)” value [1] was 17, the “models responded to karenitecin treatment (AUC<0.5 and TGI>0.8)” value [1] was “Thirty-one” and the response rate [2] was “low”.
